Data on five compounds can be found in US20120315345A1, “FUNCTIONAL FOOD AND PHARMACEUTICAL COMPOSITIONS FOR ANTI-OBESITY COMPRISING CAPSANTHIN AND FATTY-ACYL ESTER OF CAPSANTHIN HAVING ANTI-ADIPOGENIC ACTIVITY” (ESBIOTECH CO., LTD., priority 2011, published 2012).

The test system of data set [1] is 3T3-L1 cells. As to the kind of experiment: Inhibition test on adipocyte differentiation (counting of Oil Red O stained cells). Type of data set: cell-based, mouse. The settings on record: 3 days in differentiation medium, microscopical counting of Oil Red O stained cells. On the procedure: (§1) 3T3-L1 mouse embryonic fibroblast was cultured according to Singh's method (Singh R, Testosterone inhibits adipogenic differentiation in 3T3-L1 cells: Nuclear translocation of androgen receptor complex with β-catenin and T-cell factor 4 may bypass canonical WNT signaling to down-regulate adipogenic transcription factors, Endocrinology, 2006, 147, 141 to 154).
(§2) 3T3-L1 cells supplied by Korean cell line bank were cultured on a Dulbecco's modified Eagle's medium (DMEM) medium that includes 10% bovine calf serum and 1% penicillin-streptomycin mixture. When they reached confluence, culturing was continued for further 2 to 3 days. Thereafter, the medium was replaced by a fresh DMEM medium containing 10% fetal bovine serum, 1.7 μM insulin, 0.5 mM 3-isobutyl-1-methylxanthine (IBMX) and 1 μM dexamethasone and culturing was continued for 8 days. For the evaluation of inhibitory activities of capsanthin on adipocyte differentiation and on triglycerides accumulation in adipocyte, a positive control experiments were conducted on capsaicin (sigma) and/or genistein (sigma).
Mouse embryonic 3T3-L1 cells were plated in 12-well culture plate with DMEM containing 10% BCS (Bovine calf serum) and cultured for the proliferation of cells under 5% CO2 atmosphere at 37° C. until confluent phase is appeared. Continued culture for additional 2 days will ensure the clonal expansion. Culture media is replaced with differentiation medium consisting of DMEM, 10% FBS, 1.7 uM insulin, 0.5 mM IBMX, 1 uM dexamethasone and varying amount of capsanthin in DMSO (final concentration of DMSO in the differentiation media were kept under 0.1%) and cultured additional 3 days for the induction of cell differentiation Culture media was removed and washed with PBS and the cells were fixed on the well surface by incubation with 10% formaldehyde for one hour and then washed with PBS. The differentiate cells were stained with Oil Red O solution for 2 hours. The number of adipocyte stained red was counted with microscopical observation.

Data set [2] in a line: Stability during fermentation of kochujang. In kind it is physicochemical. From the text:
Capsanthin is contained in the natural products such as red peppers as the chemically stable esterified-form. Therefore, even when red peppers or the likes are included in fermented foods as the Korean traditional foods like “kimchi” or “kochujang” (also referred to as “gochujang”), original anti-adipogenic activities thereof are retained. On the other hand, it was found in our laboratory that about 35% or more of anti-adipogenic capsaicin component was destroyed during 6 month-long fermentation.
Red pepper is a traditional spicy vegetable food and more than 90% of total consumption in Korea is used to prepare traditional fermented food such as “kimchi” and “kochujang” in Korea. […] Based on this observation, present inventors are claiming that the anti-adipogenic activity of “kochujang” is due more to capsanthin components rather than to the capsaicin or capsaicin metabolite.

Data set [3] deals with 3T3-L1 cell. The experiment in a line: Inhibitory activity on triglycerides accumulation in adipocyte (Oil Red O staining). Type of data set: cell-based, mouse. The settings on record: read-out: IC50-value on triglycerides accumulation in adipocyte. On the procedure:
as §1, §2
Negal's Oil red O staining procedure (Negrel R, Culture of adipose precursor cell and cells of clonal lines from animal white adipose tissue, in adipose tissue protocols. G. Ailhaud (ed). Humana press, inc., Totowa, N.J., 2001, 225-237) was adopted to assay the quantities of triglyceides accumulated in adipocytes. The pre-adipocytes (3T3-L1 cell) were cultured in 12-well culture plate for additional two days to induce clonal expansion after the confluent phase. The culture media was replaced with differentiation media which is containing various concentration of capsanthin solution in DMSO (final concentration of DMSO in the differentiation media were kept under 0.1%) and cultured for additional 8 days to induce lipid accumulation. The culture media was removed by aspiration and washed with PBS. The cells were fixed on the surface of culture well by incubation for one hour with 500 ul of 10% formaldehyde solution. After removal of formaldehyde the cells were washed with PBS and then stained by incubation with Oil Red O for 2 hours. After two removal of Oil Red O solution by aspiration the cells were washed with PBS and then Oil Red O in adipocyte was extracted by incubation 10 minutes with 1 ml isopropyl-alcohol. Oil Red O contents in isopropyl-alcohol were assayed by 510 nm absorption on ELISA reader.

On the set-up of data set [4]: species or system Sprague-Dawley albino rats. The settings on record: rat, in vivo. On the procedure: Male Sprague-Dawley albino rats were used for the analysis of gastro-intestinal absorption of capsanthins. Animals were accommodated in a constant humidity of 50 (±5) % and constant temperature of 25 (±1)° C. under shading control of light and dark with 12 hours intervals. Feeds and water supplies were provided at libidium.
Free-form capsanthin (15 mg/kg body wt) in soy-bean oil was orally administered to group-1 animals and then 4 ml time-course blood samples were collected from the animals to EDTA tubes and centrifuged (3,000 rpm, 10 min) to obtain 1 ml plasma samples. To the plasma samples 1 ml of 1%-BHT in ethanol and 2 ml hexane were mixed, shaked vigorously and centrifuged for 5 minutes at 2,000 rpm to obtain hexane layer for the HPLC-analysis under the HPLC-condition appears in Example 10. (M. A. Grashom, Quantification of carotenoids in chicken plasma after feeding free of esterified lutein and capsanthin using high-performance liquid chromatography and liquid chromatography-mass spectrometry analysis, Poultry science, 2003, 82, 395-401, Hideo E, Carotenoids in human blood plasma after ingesting paprika juice)
Fatty-acyl ester of capsanthin was orally administered to group-2 animals equimolar dosage bases with that of free-form capsanthin. The time course collection of blood and further treatments were conducted as same way with that of group-1 experiments [Ref. to 0086]

[5] abbreviates: 3T3-L1 cells, 8 days in differentiation media, Oil Red O.

Like-named read-outs stand apart in the source and are kept apart here.

Turning to `COc1cc(CNC(=O)CCCC/C=C/C(C)C)ccc1O` [capsaicin], the IC50 in data set [1] (Mus musculus, 72 h) is 3.39 µM; in data set [3] (Mus musculus, 3T3-L1, 192 h), 32.6 µM. The “Component destroyed during fermentation” value in data set [2] (6 month-long fermentation) is recorded as at least 35%. In addition, the “Chemical alteration during fermentation of kochujang” value in data set [2] is listed as “significant decomposition”.
As for `CC1=C(/C=C/C(C)=C/C=C/C(C)=C/C=C/C=C(C)/C=C/C=C(C)/C=C/C(=O)[C@]2(C)C[C@@H](O)CC2(C)C)C(C)(C)C[C@H](O)C1` [free-form capsanthin, capsanthin], the “Molecular species found in the blood by HPLC after oral administration” value in data set [4] is on record as “appeared in the blood”. Also, the IC50 came out at 4.49 µM in data set [1] and 1.31 µM in data set [3] (setting [5]).
On to `O=c1c(-c2ccc(O)cc2)coc2cc(O)cc(O)c12` [genistein], for which the IC50 in data set [1] (Mus musculus, 72 h) was 28.1 µM; in data set [3] (Mus musculus, 192 h, 3T3-L1 cells, 8 days in differentiation media, Oil Red O) it was 58.7 µM.
For the compound “fatty-acyl ester of capsanthin [esterified-form capsanthin]”, the “Molecular species found in the blood by HPLC after oral administration” value in data set [4] was “not detected”. For the same compound, the IC50 in data set [1] stood at 75.4 µM; in data set [3] (setting [5]) it was 55.2 µM. In data set [2], the “Chemical alteration during fermentation of kochujang” value was “remained without any chemical alteration”.
With fucoxanthin, the figures for the IC50 in data set [1] and in data set [3] (setting [5]) were 79.1 µM and 54.8 µM, respectively.

For orientation: IC50 means the concentration that inhibits the measured activity by half.
